# What was measured:
# [1] = tested on: MYH11-Tom+ cells; assay: Flow cytometric analysis of MYH11-Tom+ cells in SMC differentiation; format: cell-based, human; details: RepSox 25 μM, day 12-24
# Procedure: Data are represented as mean±standard deviation (SD). […] Scale bar=1 mm. […] Scale bar=50 μm. […] Data are represented as mean±SD. Student's t-test, *: P<0.05, n=3.
# FIGS. 7A-7G show the target of RepSox. […] Cells were treated with RepSox (25 μM) or SiRNA. […] Cells were treated with RepSox (25 μM) or SiRNA. […] During the smooth muscle cells differentiation, cells were treated with or without RepSox from day 10-11. […] During the smooth muscle cells differentiation, cells were treated with RepSox for 1 or 20 hours at day 12. […] Cells were treated with RepSox and non-targeting control (NT)/SiRNA at day 10. The RNA was isolated at day 14.
# Optimized smooth muscle cell differentiation—Human pluripotent stem cell cells (H1) were cultured in E8 medium on a […]™-coated plate. To achieve the best differentiation results, ES cells were split using EDTA at 1:4 ratios two days before the differentiation. The cells reached 80-90% confluency two days later. At the day of the differentiation, ES cells were dissociated by ACCUTASE™ (Invitrogen) for 3-5 min at 37 ° C. The cells were plated on a […]™-coated plate at 1:4 ratios (1×10^5 cells/cm2). […] An increased CHIR99021 concentration of 3 μM decreased cell proliferation at 36 hours but increased MYH11 expression. At 36 hours, the cells were passaged and seeded on a new […]™-coated plate (1.6×10^4 cells/cm2). The low cell density is critical for the differentiation. A cell density of 1.0-4.0×10^4 cells/cm2 for different cell lines can be tested, such that 100% cell confluence will be achieved at day 6, which gives rise to the best differentiation efficiency. The cells were treated with E6T medium (E8 medium minus FGF2 but still containing 1.7 ng/ml TGF-β1) for 18 hours to induce the transient and medium level expression of MEOX1. E5F medium (E8 medium minus insulin and TGF-β1, but still containing 100 ng/ml FGF2) was used to suppress MEOX1 expression for another 5 days (days 3-8). Next, the cells were treated with E6FVR medium (E6 medium with 100 ng/ml FGF2, 50 ng/ml VEGFA, and 5 μM RESV, a NOTCH agonist) to induce SMC progenitors from day 8-12. E6R (E6 medium+5 μM RESV) medium supplemented with RepSox (25 μM), was then used to further mature SMCs from day 12 to 24. Cells were split (1×10^5 cells/cm2) at day 16 and further differentiated until day 24. The cells can be cryopreserved at day 16 or day 24. For P-SMCs, T-SMCs, and PT-SMCs, RepSox was replaced by PDGF-BB (10 ng/ml), TGF-β1 (1.7 ng/ml), or combination of PDGF-BB and TGF-β1, respectively, from day 12 to 24. From day 0-4: medium was changed every day. From day 2-24: medium was changed every other day. For day 1 and day 8-24, 1.5×volumes of medium, compared to the normal volume used in the well, were used. […]
# [2] = tested on: intimal hyperplasia
# Text: FIG. 5A depicts the rat balloon injury experiment. H&E staining is shown. Arrowheads indicate the intima. Scale bar=200 μm. […] Scale bar=100 Neointima is highlighted. Red arrows indicate the region with high SMA expression. Yellow arrows indicate the region with low SMA expression. […] Red arrows indicate the region with high MYH11 expression. Yellow arrows indicate the region with low MYH11 expression. […] Red arrows indicate the region with high SM22α expression. Yellow arrows indicate the region with low SM22α expression. […] The “% of high expression”=ratio of “area of high expression”! “total area of intima and media”. Data are represented as mean±SD. […] Scale bar=100 μm. Neointima is highlighted.
# Rat carotid artery balloon injury model and periadventitial delivery—This animal study was conducted with approval from the UW-Madison Department of Surgery Animal Care and Use Committee. Briefly, 2 mg (2 animals/group) or 10 mg (3 animals/group) of RepSox (or DMSO) dissolved in Regel (Tri-block gel) (Regel tri-block gel is described in Chen et al. “Unimolecular Micelle-Based Hybrid System for Perivascular Drug Delivery Produces Long-Term Efficacy for Neointima Attenuation in Rats,” Biomacromolecules, 2017 Jun. 14. doi: 10.1021/acs.biomac.7b00617) was applied to the outside of the injured artery segment immediately after balloon injury of the rat carotid artery. Two weeks post-surgery, arteries were collected and sectioned. The ratio of intima area versus media area and lumen area were measured by Image J.
# We next examined the function of RepSox in a rat intimal hyperplasia model. In order to reduce any side effect induced by systematic drug delivery, RepSox or DMSO was dissolved in gel and then applied to the outside of the injured artery segment immediately after balloon injury of the rat carotid artery (Shi et al., 2014). Carotid arteries were collected and sectioned 14 days after surgery. […] To test the effect of RepSox, we performed qPCR analysis.
structure (smiles),measurement,setting,value
"Cc1cccc(-c2n[nH]cc2-c2ccc3ncccc3n2)n1 [RepSox, RepSox (SJN 2511)]",efficiency of SMC differentiation (MYH11-tdTomato+),[1],> 95%
same,intima/media ratio,"[2]; 2 mg or 10 mg RepSox in gel periadventitially, 14 days after surgery, DMSO control 1.5",0.5
same,endothelia cell marker expression (qPCR),"[2]; injured rat carotid artery, versus DMSO",increased
same,apoptosis in intima (TUNEL),[2]; versus DMSO,increased
same,"expression of contractile proteins SMA, MYH11 and SM22α",[2]; versus DMSO,significantly increased
same,proliferation in intima and media layer (immunostaining),[2]; versus DMSO,decreased proliferation in intima but not media layer

# — US20190010461A1, “HUMAN PLURIPOTENT STEM CELL-BASED SCREENING FOR SMOOTH MUSCLE CELL DIFFERENTIATION AND DISEASE” (Wisconsin Alumni Research Foundation, priority 2017, published 2019)
